Reference: patent US20100081679A1, “DIAMINOPYRIMIDINES AS FUNGICIDES” (Bayer CropScience AG, priority 2007, published 2010)
Marks after values point to notes of the source that are not given here.

assay: logP determination via retention times, calibrated with unbranched alkan-2-ones; format: physicochemical; settings: HPLC on reversed-phase C 18, EEC Directive 79/831 Annex V.A8; method *: 40° C., 0.1% aqueous formic acid and acetonitrile, linear gradient 10% to 95% acetonitrile

SMILES	logP
COC(=O)Nc1ccc(Nc2ncc(Cl)c(NC3CC3)n2)c(F)c1 [compound 530]	1.56*
CSc1cccc(Nc2ncc(C)c(NC3CC3)n2)c1 [compound 497]	1.48*
CNC(=O)c1cccc(Nc2ncc(Cl)c(NCC3CC3)n2)c1 [compound 511]	1.44*
O=C(Nc1cccc(Nc2ncc(Br)c(NCC3CC3)n2)c1)Oc1ccccc1 [compound 466]	2.36*
Oc1ccc(Nc2ncc(Cl)c(NCC3CC3)n2)cc1F [compound 554]	1.49*
Cc1cc(Nc2ncc(Cl)c(NCC3CC3)n2)ccc1O [compound 558]	1.51*

same assay, conditions: HPLC on reversed-phase C18, method **: 43° C.; mobile phase 0.1% aqueous phosphoric acid and acetonitrile; linear gradient 10% to 95% acetonitrile

SMILES	logP
O=S(=O)(Cc1ccc(Nc2ncc(Cl)c(NC3CC3)n2)cc1)N1CCOCC1 [compound 314]	1.57**

same assay, conditions: HPLC on reversed-phase C18, method *: 40° C., 0.1% aqueous formic acid and acetonitrile, linear gradient 10% to 95% acetonitrile

SMILES	logP
CCC(C)c1ccccc1Nc1ncc(Cl)c(NC2CC2)n1 (centres unmarked) [compound 907]	2.11*
C/C(=N/O)c1cccc(Nc2ncc(Cl)c(NC3CC3)n2)c1 [compound 736]	1.52*
Brc1cnc(Nc2ccc3c(c2)OCO3)nc1NC1CC1 [compound 752]	1.66*
FC(F)(F)Oc1ccc(Nc2ncc(Br)c(NC3CC3)n2)cc1Cl [compound 753]	4.13*
CCC(=O)c1cc(Nc2ncc(Br)c(NC3CC3)n2)ccc1O [compound 760]	2.06*
CN(C)C(=O)c1cccc(Nc2ncc(Cl)c(NC3CC3)n2)c1 [compound 960]	1.33*
Clc1ccccc1Nc1ncc(Cl)c(NC2CC2)n1 [compound 940]	2.6*
CCNC(=O)c1cccc(Nc2ncc(Br)c(NC3CC3)n2)c1 [compound 702]	1.44*
O=C(Nc1cccc(Nc2ncc(Cl)c(NC3CC3)n2)c1)c1ccco1 [Example 99]	1.62*
FC(F)(F)Oc1ccccc1Nc1ncc(Cl)c(NC2CC2)n1 [compound 883]	3.07*
N#Cc1cccc(Nc2ncc(Cl)c(NCC3CC3)n2)c1 [compound 685]	2.26*
FC(F)(F)c1ccc(Nc2ncc(Br)c(NC3CC3)n2)cc1 [compound 740]	3.33*
Cc1ccc(Nc2ncc(Cl)c(NC3CC3)n2)cc1C [compound 939]	2.01*
O=C(c1cccc(Nc2ncc(Cl)c(NC3CC3)n2)c1)N1CCOCC1 [compound 735]	1.33*
Clc1cc(Cl)cc(Nc2ncc(Cl)c(NCC3CC3)n2)c1 [compound 690]	4.3*
CC(C)(C)OC(=O)NCc1ccc(Nc2ncc(Cl)c(NCC3CC3)n2)cc1 [compound 162]	2.21*
Brc1ccc(Nc2ncc(Br)c(NC3CC3)n2)cc1 [compound 743]	2.7*
Clc1cnc(Nc2cccc(-n3ccnc3)c2)nc1NC1CC1 [compound 720]	0.91*
FC(F)c1cnc(Nc2ccccc2)nc1NCC1CC1 [compound 773]	1.68*
O=C1CCCN1c1cccc(Nc2ncc(C(F)F)c(NCC3CC3)n2)c1 [compound 774]	1.48*
FC(F)(F)c1ccc(Nc2ncc(Cl)c(NCC3CC3)n2)cc1 [compound 684]	3.33*
CC(C)(C)OC(=O)Nc1ccc(Nc2ncc(Cl)c(NC3CC3)n2)cc1 [Example 100]	2.12*

same assay, conditions: HPLC on reversed-phase C18, method *: 40° C.; mobile phase 0.1% aqueous formic acid and acetonitrile; linear gradient 10% to 95% acetonitrile

SMILES	logP
Clc1ccccc1C1(Nc2nc(Nc3ccccc3)ncc2Cl)CC1 [compound 318]	3.66*
Fc1ccc(Nc2ncc(Cl)c(NC3CC3)n2)cc1F [compound 321]	2.59*
CC(C)(C)C(=O)Nc1cccc(Nc2ncc(Cl)c(NCC3CC3)n2)c1 [compound 312]	2.14*
COc1cccc(Nc2ncc(Br)c(NC3CC3)n2)c1 [compound 343]	1.9*
COc1ccc(Nc2ncc(Br)c(NC3CC3)n2)cc1 [compound 344]	1.63*
CSc1ccc(Nc2ncc(Br)c(NC3CC3)n2)cc1 [compound 353]	2.18*
CCC(=O)c1ccc(Nc2ncc(Br)c(NC3CC3)n2)cc1 [compound 356]	2.68*
FC(F)Oc1cc(Nc2ncc(Br)c(NC3CC3)n2)ccc1Cl [compound 311]	3.44*
N#Cc1cccc(Nc2ncc(Cl)c(NC3CC3)n2)c1 [compound 278]	2.13*
CC(=O)c1ccc(Nc2ncc(Br)c(NC3CC3)n2)cc1 [compound 357]	2.09*
Fc1ccccc1Nc1ncc(Cl)c(NC2CC2)n1 [compound 275]	2.09*

same assay, conditions: HPLC on reversed-phase C18 column (EEC Directive 79/831 Annex V.A8); method *: 40° C.; 0.1% aqueous formic acid and acetonitrile; linear gradient 10% to 95% acetonitrile

SMILES	logP
COc1cccc(Nc2ncc(C(F)(F)F)c(NCC3CC3)n2)c1 [compound 199]	2.91*
CS(=O)(=O)Cc1cccc(Nc2ncc(Cl)c(NC3CC3)n2)c1 [compound 243]	1.46*
CS(=O)(=O)c1cccc(Nc2ncc(Cl)c(NC3CC3)n2)c1 [compound 252]	1.63*

same assay, conditions: HPLC reversed-phase C 18, EEC Directive 79/831 Annex V.A8; method *: 40° C., 0.1% aqueous formic acid and acetonitrile, linear gradient 10% to 95% acetonitrile

SMILES	logP
CC(C)(C)NC(=O)c1cccc(Nc2ncc(Cl)c(NC3CC3)n2)c1 [compound 831]	2.07*
COC(C)c1cccc(Nc2ncc(C(F)(F)F)c(NC3CC3)n2)c1 (centres unmarked) [compound 826]	3.16*
Brc1cnc(Nc2ccccc2)nc1NCCC1CC1 [compound 809]	2.18*
O=C1COCCN1c1cccc(Nc2ncc(C(F)(F)F)c(NC3CC3)n2)c1 [compound 790]	1.88*
N#CCc1cccc(Nc2ncc(Br)c(NC3CC3)n2)c1 [compound 794]	1.75*
O=C1CCCCN1c1cccc(Nc2ncc(C(F)(F)F)c(NC3CC3)n2)c1 [compound 803]	2.18*
CCc1cccc(Nc2ncc(Cl)c(NCC3CC3)n2)c1 [compound 776]	2.37*

same assay, conditions: method **: HPLC reversed-phase C 18, 43° C., 0.1% aqueous phosphoric acid and acetonitrile, linear gradient 10% to 95% acetonitrile

SMILES	logP
CNS(=O)(=O)c1ccc(Nc2ncc(Cl)c(NC3CC3)n2)cc1 [compound 21]	1.71**

same assay, conditions: method **: HPLC reversed-phase C 18, temperature 43° C.; mobile phase 0.1% aqueous phosphoric acid and acetonitrile; linear gradient 10% to 95% acetonitrile

SMILES	logP
CNC(=O)c1cccc(Nc2ncc(C(F)(F)F)c(NC3CC3)n2)c1 [compound 652]	1.78**
CC(=O)c1cccc(Nc2ncc(C(F)(F)F)c(NC3CC3)n2)c1 [compound 657]	2.72**

same assay, conditions: method **: HPLC, reversed-phase C 18, 43° C., mobile phase 0.1% aqueous phosphoric acid and acetonitrile, linear gradient from 10% to 95% acetonitrile

SMILES	logP
COc1ccc(CN(c2nc(Nc3cccc(SC)c3)ncc2Cl)C2CC2)cc1 [compound 1026]	4.78**
CC1(C)CC1Nc1nc(Nc2cccc(N3CCOC3=O)c2)ncc1Cl (centres unmarked) [compound 1035]	1.93**
Clc1cnc(Nc2cccc(CBr)c2)nc1NC1CC1 [compound 1023]	2.31**

same assay, conditions: method *: HPLC reversed-phase C18, 40° C., 0.1% aqueous formic acid and acetonitrile, linear gradient 10% to 95% acetonitrile

SMILES	logP
Oc1ccc(Nc2ncc(Cl)c(NC3CC3)n2)cc1 [Example 75]	1.12*
COc1cc(Nc2ncc(Cl)c(NC3CC3)n2)cc(OC)c1OC [Example 4]	1.73*
CNC(=O)c1cccc(Nc2ncc(Br)c(NC3CC3)n2)c1 [compound 383]	1.39*
CC(C)(C)NC(=O)c1cccc(Nc2ncc(Br)c(NCC3CC3)n2)c1 [compound 461]	2.16*
CN(C)S(=O)(=O)c1ccc(Nc2ncc(Cl)c(NC3CC3)n2)cc1.Cl [Example 78]	2.26*
COC(=S)Nc1ccc(Nc2ncc(Cl)c(NC3CC3)n2)cc1 [compound 365]	1.8*
O=C1NC(=O)C(c2ccc(Nc3ncc(Br)c(NC4CC4)n3)cc2)N1 (centres unmarked) [compound 384]	0.62*
CNC(=O)c1cccc(Nc2ncc(Br)c(NCC3CC3)n2)c1 [compound 427]	1.53*

same assay, conditions: method *: HPLC reversed-phase C 18, temperature 40° C.; mobile phase 0.1% aqueous formic acid and acetonitrile; linear gradient 10% to 95% acetonitrile

SMILES	logP
N#Cc1cnc(Nc2ccc(F)cc2)nc1NC1CC1 [compound 616]	2.58*
COC(=O)Nc1ccc(Nc2ncc(F)c(NC3CC3)n2)cc1 [compound 594]	1.28*
COc1cccc(Nc2ncc(C#N)c(NC3CC3)n2)c1 [compound 604]	2.48*
CNC(=O)c1cccc(Nc2ncc(C(F)(F)F)c(NC3CC3)n2)c1 [compound 652]	1.78*;
CC(=O)c1cccc(Nc2ncc(C(F)(F)F)c(NC3CC3)n2)c1 [compound 657]	2.57*;
CN(C)S(=O)(=O)c1ccc(Nc2ncc(C(F)(F)F)c(NC3CC3)n2)cc1 [compound 645]	2.84*
N#Cc1cccc(Nc2ncc(C(F)(F)F)c(NC3CC3)n2)c1 [compound 638]	2.95*
COc1cc(Nc2ncc(F)c(NC3CC3)n2)ccc1NC(C)=O [compound 572]	1.17*
CCNC(=O)c1cccc(Nc2ncc(Cl)c(NC3CC3)n2)c1 [compound 631]	1.35*
O=C(NC1CC1)c1cccc(Nc2ncc(Cl)c(NC3CC3)n2)c1 [compound 629]	1.39*
Fc1cc(F)cc(Nc2ncc(Cl)c(NCC3CC3)n2)c1 [compound 603]	3.42*

same assay, conditions: method *: HPLC, reversed-phase C 18, 40° C., mobile phase 0.1% aqueous formic acid and acetonitrile, linear gradient from 10% to 95% acetonitrile

SMILES	logP
FC(F)(F)c1cc(Br)cc(Nc2ncc(Cl)c(NC3CC3)n2)c1 [compound 998]	4.6*
O=C(c1cccc(Nc2ncc(Cl)c(NC3CC3)n2)c1)N1CCNCC1 [compound 1065]	0.53*
CN1CCN(C(=O)c2cccc(Nc3ncc(Cl)c(NC4CC4)n3)c2)CC1 [compound 1059]	0.59*
CC(=O)Nc1cc(Nc2ncc(Cl)c(NC3CC3)n2)ccc1C [compound 982]	1.34*
CC1(C)CC1Nc1nc(Nc2cccc(N3CCOC3=O)c2)ncc1Cl (centres unmarked) [compound 1035]	1.93*;
Clc1cnc(Nc2ccc3ncsc3c2)nc1NC1CC1 [compound 995]	1.66*
CCN(C)C(=O)c1cccc(Nc2ncc(Cl)c(NC3CC3)n2)c1 [compound 1060]	1.56*
COCCOc1cccc(Nc2ncc(C(F)(F)F)c(NC3CC3)n2)c1 [compound 1041]	2.78*
